Results taken from patent US10202339B2, “Therapeutic compounds and compositions” (AGIOS PHARMACEUTICALS, INC., priority 2012, dated 2019).

Biological target: IDH2 R140Q (Homo sapiens (Human), UniProt P48735, R140Q)
Assay: IDH2 R140Q enzymatic cofactor depletion assay (diaphorase/resazurin)
Type: biochemical
Details: IDH2 R140Q enzyme, one hour preincubation with compound, one hour reaction; read-out: Enz R140Q
Procedure: The reaction was terminated by the addition of a second enzyme, diaphorase, and a corresponding substrate, resazurin. Diaphorase reduces resazurin to the highly fluorescent resorufin with the concomitant oxidation of NADPH to NADP, both halting the IDH2 reaction by depleting the available cofactor pool and facilitating quantitation of the amount of cofactor remaining after a specific time period through quantitative production of an easily detected fluorophore.
The compound was then incubated for one hour at room temperature with the enzyme; before starting the IDH2 reaction with the addition of 10 μl of substrate mix containing 50 μM NADPH and 6.3 mM α-KG in the buffer described above. After a further one hour of incubation at room temperature, the reaction was halted and the remaining NADPH measured through conversion of resazurin to resorufin by the addition of 25 μl Stop Mix (36 μg/ml diaphorase enzyme and 60 μM resazurin; in buffer). After one minute of incubation the plate was read on a plate reader at Ex544/Em590.

Sequence of IDH2 R140Q (P48735 40-452 R140Q): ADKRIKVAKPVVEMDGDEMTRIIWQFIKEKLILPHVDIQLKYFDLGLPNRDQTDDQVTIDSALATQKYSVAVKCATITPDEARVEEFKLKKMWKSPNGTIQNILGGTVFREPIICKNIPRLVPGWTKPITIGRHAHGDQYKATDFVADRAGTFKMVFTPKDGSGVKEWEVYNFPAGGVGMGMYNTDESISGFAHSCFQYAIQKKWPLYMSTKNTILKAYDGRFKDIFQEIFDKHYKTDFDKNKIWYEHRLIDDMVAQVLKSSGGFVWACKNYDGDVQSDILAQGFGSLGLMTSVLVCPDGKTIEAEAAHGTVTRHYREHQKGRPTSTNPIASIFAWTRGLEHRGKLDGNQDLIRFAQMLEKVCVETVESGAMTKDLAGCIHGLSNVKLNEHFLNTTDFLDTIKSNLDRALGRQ

IC50 [nM] | Structure (SMILES)
100 to 1000 | O=C(Nc1cccc(C(F)(F)F)c1)Nc1cc(S(=O)(=O)NC2CCCC2)ccc1-c1ccsc1 [Compound 126, N-cyclopentyl-4-(thiophen-3-yl)-3-(3-(3-(trifluoromethyl)phenyl)ureido)benzenesulfonamide]
1000 to 10000 | O=C(Nc1cccc(C(F)(F)F)c1)Nc1cc(S(=O)(=O)Nc2ccccc2)ccc1-c1ccccn1 [Compound 109]
1000 to 10000 | CN(c1ccccc1)S(=O)(=O)c1ccc(-c2ccsc2)c(NC(=O)Nc2cccc(C(F)(F)F)c2)c1 [Compound 143]
100 to 1000 | O=C(Nc1ccccc1F)Nc1cc(S(=O)(=O)NC2CC2)ccc1-c1ccccc1 [Compound 35, N-cyclopropyl-2-(3-(2-fluorophenyl)ureido)-[1,1′-biphenyl]-4-sulfonamide]
100 to 1000 | CCOc1ccc(S(=O)(=O)NC2COC2)cc1NC(=O)Nc1cccc(C(F)(F)F)c1 [Compound 180, 4-ethoxy-N-(oxetan-3-yl)-3-(3-(3-(trifluoromethyl)phenyl)ureido)benzenesulfonamide]
100 to 1000 | O=C(Nc1cccc(C(F)(F)F)c1)Nc1cc(S(=O)(=O)NCC(F)(F)F)ccc1C1CCCO1 (centres unmarked) [Compound 173, 4-(tetrahydrofuran-2-yl)-N-(2,2,2-trifluoroethyl)-3-(3-(3-(trifluoromethyl)phenyl)ureido)benzene sulfonamide]
1000 to 10000 | O=C(Nc1cc(S(=O)(=O)NCC(F)(F)F)ccc1-c1ccccc1)Nc1ncccc1F [Compound 99, 2-(3-(3-fluoropyridin-2-yl)ureido)-N-(2,2,2-trifluoroethyl)-[1,1′-biphenyl]-4-sulfonamide]
100 to 1000 | O=C(Nc1cccc(C(F)(F)F)c1)Nc1cc(S(=O)(=O)N2CCS(=O)(=O)CC2)ccc1-c1ccsc1 [Compound 135, 1-(5-((1,1-dioxidothiomorpholino)sulfonyl)-2-(thiophen-3-yl)phenyl)-3-(3-(trifluoromethyl)phenyl)urea]
1000 to 10000 | O=C(Nc1ccc(F)cc1)Nc1cc(S(=O)(=O)NC2CC2)ccc1-c1ccccc1 [Compound 53]
1000 to 10000 | O=C(Nc1cc(S(=O)(=O)NCC(F)(F)F)ccc1-c1ccccc1)Nc1ncccc1Cl [Compound 95]
100 to 1000 | O=C(Nc1cccc(C(F)(F)F)c1)Nc1cc(S(=O)(=O)N2CCOCC2)ccc1-c1ccsc1 [Compound 131, 1-(5-(morpholinosulfonyl)-2-(thiophen-3-yl)phenyl)-3-(3-(trifluoromethyl)phenyl)urea]
100 to 1000 | CCNS(=O)(=O)c1ccc(-c2ccsc2)c(NC(=O)Nc2cccc(C(F)(F)F)c2)c1 [Compound 112, N-ethyl-4-(thiophen-3-yl)-3-(3-(3-(trifluoromethyl)phenyl)ureido)benzenesulfonamide]
100 to 1000 | O=C(Nc1cc(S(=O)(=O)NCC(F)(F)F)ccc1-c1ccccc1)Nc1cnccc1C(F)(F)F [Compound 84, N-(2,2,2-trifluoroethyl)-2-(3-(4-(trifluoromethyl)pyridin-3-yl)ureido)-[1,1′-biphenyl]-4-sulfonamide]
100 to 1000 | Cc1ccc(NC(=O)Nc2c(Cl)cccc2Cl)cc1S(=O)(=O)Nc1ccc(Cl)cc1 [Compound 352]
1000 to 10000 | O=C(Nc1cccc(C(F)(F)F)c1)Nc1cc(S(=O)(=O)Nc2cccc(C(F)(F)F)c2)ccc1-c1ccsc1 [Compound 147]
100 to 1000 | O=C(Nc1cc(Cl)ccn1)Nc1cc(S(=O)(=O)NCC(F)(F)F)ccc1-c1ccccc1 [Compound 82, 2-(3-(4-chloropyridin-2-yl)ureido)-N-(2,2,2-trifluoroethyl)-[1,1′-biphenyl]-4-sulfonamide]

IC50 [nM] | Structure (SMILES)
1000 to 10000 | O=C(Nc1ccc(F)c(Cl)c1)Nc1cc(S(=O)(=O)NC2CC2)ccc1-c1ccccc1 [Compound 52]
1000 to 10000 | Cc1nccn1-c1ccc(S(=O)(=O)Nc2ccccc2)cc1NC(=O)Nc1cccc(C(F)(F)F)c1 [Compound 343]
100 to 1000 | O=C(Nc1cccc(C(F)(F)F)c1)Nc1cc(S(=O)(=O)Nc2ccccc2)ccc1-c1cccc(O)c1 [Compound 50, 3′-hydroxy-N-phenyl-2-(3-(3-(trifluoromethyl)phenyl)ureido)-[1,1′-biphenyl]-4-sulfonamide]
100 to 1000 | CCn1ccc(NC(=O)Nc2cc(S(=O)(=O)NCC(F)(F)F)ccc2-c2ccccc2)n1 [Compound 93, 2-(3-(1-ethyl-1H-pyrazol-3-yl)ureido)-N-(2,2,2-trifluoroethyl)-[1,1′-biphenyl]-4-sulfonamide]
100 to 1000 | O=C(Nc1ccc(Cl)cc1)Nc1cc(S(=O)(=O)NCC(F)(F)F)ccc1-c1ccccc1 [Compound 37, 2-(3-(4-chlorophenyl)ureido)-N-(2,2,2-trifluoroethyl)-[1,1′-biphenyl]-4-sulfonamide]
100 to 1000 | CCOc1ccc(S(=O)(=O)NC2(C#N)CC2)cc1NC(=O)Nc1cccc(C(F)(F)F)c1 [Compound 181, N-(1-cyanocyclopropyl)-4-ethoxy-3-(3-(3-(trifluoromethyl)phenyl)ureido)benzenesulfonamide]
100 to 1000 | O=C(Nc1ccccc1)Nc1cc(S(=O)(=O)Nc2ccccc2)ccc1-c1ccsc1 [Compound 1, N-phenyl-3-(3-phenylureido)-4-(thiophen-3-yl)benzenesulfonamide]
1000 to 10000 | O=C(Nc1cccc(C(F)(F)F)c1)Nc1cc(S(=O)(=O)N2CCOCC2)ccc1-n1ccnc1 [Compound 346]
1000 to 10000 | CC(=O)Nc1cccc(-c2ccc(S(=O)(=O)Nc3ccccc3)cc2NC(=O)Nc2cccc(C(F)(F)F)c2)c1 [Compound 110]
100 to 1000 | O=C(Nc1ncc(Cl)s1)Nc1cc(S(=O)(=O)NCC(F)(F)F)ccc1-c1ccccc1 [Compound 100, 2-(3-(5-chlorothiazol-2-yl)ureido)-N-(2,2,2-trifluoroethyl)-[1,1′-biphenyl]-4-sulfonamide]
1000 to 10000 | O=C(Nc1cccc(C(F)(F)F)c1)Nc1cc(S(=O)(=O)Nc2ccccc2)ccc1-c1ccccc1F [Compound 63]
1000 to 10000 | COc1cccc(-c2ccc(S(=O)(=O)Nc3ccccc3)cc2NC(=O)Nc2cccc(C(F)(F)F)c2)c1 [Compound 51]
100 to 1000 | O=C(Nc1cc(S(=O)(=O)NCC(F)(F)F)ccc1-c1ccccc1)Nc1ccc(F)cc1C(F)(F)F [Compound 76, 2-(3-(4-fluoro-2-(trifluoromethyl)phenyl)ureido)-N-(2,2,2-trifluoroethyl)-[1,1′-biphenyl]-4-sulfonamide]
100 to 1000 | N#CC1(NS(=O)(=O)c2ccc(OCC3CC3)c(NC(=O)Nc3cccc(C(F)(F)F)c3)c2)CC1 [Compound 179, N-(1-cyanocyclopropyl)-4-(cyclopropylmethoxy)-3-(3-(3-(trifluoromethyl)phenyl)ureido)benzene sulfonamide]
100 to 1000 | O=C(Nc1cccc(C(F)(F)F)c1)Nc1cc(S(=O)(=O)Nc2ccccc2)ccc1C1=CCOCC1 [Compound 161, 4-(3,6-dihydro-2H-pyran-4-yl)-N-phenyl-3-(3-(3-(trifluoromethyl)phenyl)ureido)benzene sulfonamide]
1000 to 10000 | O=C(Nc1cc(S(=O)(=O)NCC(F)(F)F)ccc1-c1ccccc1)Nc1ncccc1C(F)(F)F [Compound 104, N-(2,2,2-trifluoroethyl)-2-(3-(3-(trifluoromethyl)pyridin-2-yl)ureido)-[1,1′-biphenyl]-4-sulfonamide]
